Data taken from patent US20080112968A1, “NICOTINAMIDE COMPOSITIONS FOR TREATMENT OF SKIN DISEASES AND DISORDERS” (Dermena, priority 2006, published 2008).

experiment: Solubility in water; type: physicochemical; details: not given

Row | SMILES | solubility [mg/mL]
1 | C[n+]1cccc(C(N)=O)c1 [Compound 1, 1-Methylnicotinamide] | > 600

experiment: Binding of pyridinium salts to sepharose immobilized heparin (spectrophotometric degree of binding); details: water solution incubated 5 minutes with sepharose immobilized heparin 25 mg/mL
Description: Spectrophotometric methodologies were applied to estimate a degree of binding (DB) of the investigated compounds with heparin. This method is based on the absorption measurements of water solution of the investigated compound before and after a contact with heparin. The concentration was adjusted such that the absorbance in the region near the absorption maximum was around 1. The absorption spectra was collected for these prepared solutions. The same solutions of the investigated pyridinium salts were also incubated for 5 minutes with sepharose immobilized heparin (Heparin Sepharose CL-6B, Amersham Biosciences AB, Sweden) added in amount of 25 mg/mL. The suspensions of immobilized heparin with the analyzed compounds were then placed into Eppendorf microtubes and centrifuged at 13000 g for 4 minutes. The resulting clear solution over the sediment was introduced into a cuvette, and the absorption spectrum was measured. The degree of binding was estimated based on comparison of integrated area under the absorption curve for the solutions incubated and non-contacted with heparin.
DB was calculated according to the equation (1):
where: DB=degree of binding,
IA=integrated area under absorption curve for sample without contact with immobilized heparin,
IAHEP=integrated area under absorption curve for sample incubated with immobilized heparin.

Row | Degree of binding, [%] | SMILES
2 | 20-45% | C[n+]1cccc(C(=O)NCO)c1 [Compound 4, 1-Methyl-N′-(hydroxymethyl)-nicotinamide]
3 | 20-45% | CNC(=O)c1ccc[n+](C)c1 [Compound 2, 1,N′-Dimethylnicotinamide]
4 | 20-45% | CC(=O)c1ccc[n+](C)c1 [Compound 5, 1-Methyl-3-acetylpyridine]

Second part, the compound before the results:

Row | SMILES | Degree of binding, [%]
5 | CCC[n+]1cccc(C(N)=O)c1 [Compound 6, 1-Propylnicotinamide] | 20-45%
6 | C[n+]1cccc(C(=O)[O-])c1 [Compound 7, Trigonelline] | <20%
7 | CCN(CC)C(=O)c1ccc[n+](C)c1 [Compound 3, 1-Methyl-N′,N′-diethylnicotin-amide] | 20-45%
8 | NC(=O)c1cccnc1 [Compound 8, Nicotinamide] | <20%
9 | C[n+]1cccc(C(N)=O)c1 [Compound 1, 1-Methylnicotinamide] | >45%
